This is an account of results in patent EP3653608A1, “ISOQUINOLINE BIARYL COMPOUNDS, A PHARMACEUTICAL COMPOSITION COMPRISING THE SAME, AND USES THEREOF” (Ludwig-Maximilians-Universität München, priority 2018, dated 2020).

Data set [1] concerns tubulin polymerisation dynamics. The experiment in a line: Inhibition of tubulin polymerisation dynamics in cellulo, confocal video microscopy of EB3-YFP comets. Format: cell-based, human. The following applies: 0.24 µM, live HeLa cells expressing EB3-YFP. An excerpt:
In videos this marker manifests as bright well-defined moving "comets", and in still images as bright elongated streaks, when MTs are polymerising normally as in the control image (frame "ctrl"). […] "DMSO ctrl" denotes the cosolvent control for the A-3 images (i.e. 0.25% DMSO but no compound) while "PBS ctrl" denotes the control for the A-2 images (no compound or cosolvent applied); these controls show the expected structure of the microtubule network when no inhibition is applied.

Data set [2] has as its system microtubule network. The experiment in a line: Microtubule perturbation in cellulo, immunofluorescence staining of α-tubulin. In kind it is cell-based, human. The following applies: HeLa cells, 24 h incubation, A-2 in PBS, A-3 with 0.25% DMSO cosolvent.
The test system of data set [3] is Balb/c mice. The experiment in a line: Safe dosing parameters in vivo in mice.
For data set [4], the system named is HeLa cells. The experiment in a line: Cell cycle analysis by flow cytometry, propidium iodide staining. Format: cell-based, human. The conditions noted are these: 24 h incubation, propidium iodide DNA staining, phosphate. Background: Flow cytometry measures light scatter and fluorescence of single cells or particles in a stream.
Data set [5] has as its system HeLa cell line. Nature of the data set: Antiproliferative MTT assay, HeLa cell line. Format: cell-based. The conditions noted are these: Homo sapiens. A general note: Tetrazolium assays rely on reduction of a dye to a coloured formazan, in cell work by metabolically active cells.
The conditions of data set [6]: human, 40 min, 2 uM.
Data set [7] concerns HL60 cell line. Nature of the data set: Antiproliferative MTT assay, HL60 cell line. In kind it is cell-based. The following applies: Homo sapiens, HL-60, 48 h incubation.
The nature of data set [8]: Metabolic stability in mouse liver microsomes. The following applies: 2 uM, over 40 minutes, 37°C. Background: Microsomes from liver hold many membrane-bound enzymes, among them those of drug oxidation.
The target of data set [9] is CYP3A4 (Homo sapiens, UniProt P08684). Nature of the data set: in vitro. The following applies: probe fluorogenic CYP substrate (not named).
Data set [10] deals with CYP2C19 (Homo sapiens, UniProt P33261). Nature of the data set: Cytochrome P450 inhibition with fluorogenic substrate, CYP2C19. The conditions noted are these: CYP2C19, 10 µM, 10 minute preincubation, 60 min reaction.
Data set [11] can be described thus: physchem. The conditions noted are these: pH 7.4.
For data set [12], the target named is CYP2D6 (Homo sapiens, UniProt P10635). Nature of the data set: in vitro. The following applies: probe fluorogenic CYP substrate (not named).
Data set [13] addresses CYP2C9 (Homo sapiens, UniProt P11712). The experiment in a line: in vitro. The following applies: probe fluorogenic CYP substrate (not named).
Data set [14] addresses T1, CYP1A2 (Homo sapiens, UniProt P05177).
T1 sequence (P05177 1-516): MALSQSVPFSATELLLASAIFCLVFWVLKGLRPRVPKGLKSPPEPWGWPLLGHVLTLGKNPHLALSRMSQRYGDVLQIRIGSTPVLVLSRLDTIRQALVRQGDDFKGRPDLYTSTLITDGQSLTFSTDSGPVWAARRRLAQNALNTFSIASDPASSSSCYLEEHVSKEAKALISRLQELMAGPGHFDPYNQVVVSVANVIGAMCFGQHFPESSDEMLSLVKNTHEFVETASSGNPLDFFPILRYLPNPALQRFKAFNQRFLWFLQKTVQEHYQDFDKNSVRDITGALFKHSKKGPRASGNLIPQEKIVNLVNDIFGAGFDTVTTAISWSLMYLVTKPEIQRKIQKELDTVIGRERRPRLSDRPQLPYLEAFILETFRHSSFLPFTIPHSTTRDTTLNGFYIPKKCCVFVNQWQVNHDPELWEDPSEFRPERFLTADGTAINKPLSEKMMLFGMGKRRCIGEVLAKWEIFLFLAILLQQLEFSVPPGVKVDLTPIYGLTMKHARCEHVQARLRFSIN
The experiment in a line: Cytochrome P450 inhibition with fluorogenic substrate, CYP1A2. The following applies: CYP1A2, 10 µM, 10 minute preincubation, 25 minute reaction.

Entries after “also recorded” stand apart in the source; their conditions may differ. Read-outs that look alike come from different tables or passages of the source.

Chain of CYP2D6 (P10635 whole entry): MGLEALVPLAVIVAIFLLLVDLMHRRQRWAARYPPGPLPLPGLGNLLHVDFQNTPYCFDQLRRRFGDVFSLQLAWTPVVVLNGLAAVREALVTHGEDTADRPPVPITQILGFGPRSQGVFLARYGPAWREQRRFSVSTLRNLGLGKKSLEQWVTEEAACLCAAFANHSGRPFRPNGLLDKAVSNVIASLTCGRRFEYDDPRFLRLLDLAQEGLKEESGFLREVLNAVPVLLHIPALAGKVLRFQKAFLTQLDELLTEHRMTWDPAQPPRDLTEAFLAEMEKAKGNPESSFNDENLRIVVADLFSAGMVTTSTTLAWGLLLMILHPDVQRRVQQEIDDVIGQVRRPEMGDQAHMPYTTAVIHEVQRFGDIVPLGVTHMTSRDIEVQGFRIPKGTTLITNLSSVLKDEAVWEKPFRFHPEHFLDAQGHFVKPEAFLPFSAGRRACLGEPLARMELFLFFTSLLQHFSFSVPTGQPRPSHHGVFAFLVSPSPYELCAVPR
Chain of CYP2C19 (P33261 whole entry): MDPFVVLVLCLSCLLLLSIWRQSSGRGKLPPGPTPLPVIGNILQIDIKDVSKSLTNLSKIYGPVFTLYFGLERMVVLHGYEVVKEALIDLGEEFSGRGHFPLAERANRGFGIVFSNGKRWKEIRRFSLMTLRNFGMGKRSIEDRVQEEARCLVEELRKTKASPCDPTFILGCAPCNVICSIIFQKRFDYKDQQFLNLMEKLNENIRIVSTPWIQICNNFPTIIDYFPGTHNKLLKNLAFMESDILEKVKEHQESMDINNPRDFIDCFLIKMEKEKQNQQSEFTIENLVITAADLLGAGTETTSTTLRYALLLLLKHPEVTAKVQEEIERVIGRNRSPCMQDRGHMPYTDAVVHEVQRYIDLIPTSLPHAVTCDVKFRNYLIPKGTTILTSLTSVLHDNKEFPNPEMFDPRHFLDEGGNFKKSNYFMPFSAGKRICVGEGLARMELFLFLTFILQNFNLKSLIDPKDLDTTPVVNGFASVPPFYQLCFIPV
Chain of CYP2C9 (P11712 whole entry): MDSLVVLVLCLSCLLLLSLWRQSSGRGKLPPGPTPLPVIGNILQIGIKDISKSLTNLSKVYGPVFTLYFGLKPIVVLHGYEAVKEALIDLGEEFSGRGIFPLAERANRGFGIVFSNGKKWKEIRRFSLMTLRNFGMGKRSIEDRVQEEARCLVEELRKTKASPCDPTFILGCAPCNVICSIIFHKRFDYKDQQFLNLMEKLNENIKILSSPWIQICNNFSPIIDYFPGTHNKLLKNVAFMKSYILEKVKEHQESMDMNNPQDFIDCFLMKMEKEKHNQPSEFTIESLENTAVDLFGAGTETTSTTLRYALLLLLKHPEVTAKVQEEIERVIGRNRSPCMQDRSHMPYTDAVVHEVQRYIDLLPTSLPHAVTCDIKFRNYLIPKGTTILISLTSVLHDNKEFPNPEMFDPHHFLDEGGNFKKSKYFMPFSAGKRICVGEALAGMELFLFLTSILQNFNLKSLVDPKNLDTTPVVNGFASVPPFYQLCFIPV
Chain of CYP3A4 (P08684 whole entry): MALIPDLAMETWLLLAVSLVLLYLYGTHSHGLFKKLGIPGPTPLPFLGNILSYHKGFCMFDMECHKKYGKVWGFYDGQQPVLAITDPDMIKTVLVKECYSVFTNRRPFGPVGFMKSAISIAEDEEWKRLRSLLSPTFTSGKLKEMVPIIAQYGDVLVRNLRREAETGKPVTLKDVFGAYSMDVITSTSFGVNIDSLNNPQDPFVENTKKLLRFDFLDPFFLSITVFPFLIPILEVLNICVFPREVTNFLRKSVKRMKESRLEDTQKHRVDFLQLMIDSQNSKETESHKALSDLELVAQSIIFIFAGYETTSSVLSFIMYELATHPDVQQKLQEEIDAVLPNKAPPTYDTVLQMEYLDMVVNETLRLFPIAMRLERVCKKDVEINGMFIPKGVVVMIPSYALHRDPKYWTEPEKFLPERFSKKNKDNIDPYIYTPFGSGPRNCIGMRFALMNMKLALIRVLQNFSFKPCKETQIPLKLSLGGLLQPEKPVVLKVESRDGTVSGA

`COc1cc2c(-c3cc(OC)c(OC)c(OC)c3)nccc2cc1OP(=O)([O-])[O-].[Na+].[Na+]` [A-2, disodium 7-methoxy-1-(3,4,5-trimethoxyphenyl)isoquinolin-6-yl phosphate]: the “time until the comets stopped and vanished” value in data set [1] was at most 0.5 min. The microtubule network perturbation result in [2] (phosphate) was “pronounced disorganisation and destruction of the microtubule network”. The tolerability result in data set [3] (repeated dosage 25 mg/kg i.p., 3 administrations at 48-hour intervals, Balb/c mice) was “tolerated compound administration”; in data set [3] (repeated dosage 25 mg/kg i.v., 3 administrations at 48-hour intervals, Balb/c mice) it was “tolerated compound administration”; in [3] (single dosage 31.5 mg/kg i.p., male and female Balb/c mice), “tolerated by all mice tested”; in [3] (single dosage 50 mg/kg i.v., male and female Balb/c mice), “tolerated by all mice tested”. The cell cycle effect entry in data set [4] is given as “extensive cell cycle arrest leading to accumulation of cells in the G2/M phase; also recorded: dose-dependently causes accumulation of cells at the G2/M phase”. In addition, half-maximal inhibition in data set [5] (HeLa, 48 h) (IC50) required 130 nM.

In data set [6], `Cn1c(=O)c2c(ncn2C)n(C)c1=O` [caffeine, reference compound] showed a degradation below 10%.

As for `COc1ccc2ccnc(-c3cc(OC)c(OC)c(OC)c3)c2c1` [A-3, 7-methoxy-1-(3,4,5-trimethoxyphenyl)isoquinoline], the microtubule network perturbation result in data set [2] is “pronounced disorganisation and destruction of the microtubule network”. The IC50 (usually the concentration that gives 50% inhibition) in [7] amounted to 280 nM.

On to `COc1cc2c(-c3cc(OC)c(OC)c(OC)c3)nccc2cc1O` [A-1, 7-methoxy-1-(3,4,5-trimethoxyphenyl)isoquinolin-6-ol], for which the degradation in data set [8] stood at 33%; in data set [6], 31%. Besides, the inhibition at 25 min, 10 µM in data set [9], in data set [12] and in data set [13] was 13 to 19% each time. Also, the “apparent enhancement of activity” value in [10] amounted to 50%. In addition, the IC50 stood at 100 nM in data set [7] and 240 nM in [5] (HeLa cell line, MTT assay, 48 h incubation, read-out: IC50). Further, in data set [11], the logD – broadly, the decadic logarithm of the distribution of all forms, ionised or not, between an organic phase and buffer at a given pH – came out at 2.18. Besides, the inhibition (in general, the change of the read-out against control, counted positive when it falls) in data set [14] is recorded as “zero”.
